Data on 30 compounds can be found in US8268848B2, “Cyclopropane compound” (Eisai R&D Management Co., Ltd., priority 2010, dated 2012).

One may read the pIC50 as the IC50 on a negative log10 scale, so that one unit is a factor of ten. As usually defined, the IC50 is the concentration that inhibits the measured activity by half.

One assay deals with T1, OX1 (Homo sapiens, UniProt O43613).
T1 sequence (O43613 1-425): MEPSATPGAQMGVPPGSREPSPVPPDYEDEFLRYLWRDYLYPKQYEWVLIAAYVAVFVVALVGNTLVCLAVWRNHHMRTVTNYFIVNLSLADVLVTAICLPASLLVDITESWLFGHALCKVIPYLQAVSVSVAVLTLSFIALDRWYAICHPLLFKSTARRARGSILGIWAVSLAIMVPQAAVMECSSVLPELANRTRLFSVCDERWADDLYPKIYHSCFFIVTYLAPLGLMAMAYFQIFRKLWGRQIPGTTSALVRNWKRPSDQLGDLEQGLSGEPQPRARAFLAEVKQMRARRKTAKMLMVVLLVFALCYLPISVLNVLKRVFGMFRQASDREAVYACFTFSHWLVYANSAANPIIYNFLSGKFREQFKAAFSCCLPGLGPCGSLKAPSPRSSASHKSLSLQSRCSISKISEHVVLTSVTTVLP
Kind of assay: Measurement of orexin receptor-binding ability ([125I]-OX-A, cell membranes, OX1). The arrangement: expressed in transfected cells; host or cells: CHO cells (membrane preparation).

A further assay has as its target T2, OX2 (Homo sapiens, UniProt O43614).
T2 sequence (O43614 1-444): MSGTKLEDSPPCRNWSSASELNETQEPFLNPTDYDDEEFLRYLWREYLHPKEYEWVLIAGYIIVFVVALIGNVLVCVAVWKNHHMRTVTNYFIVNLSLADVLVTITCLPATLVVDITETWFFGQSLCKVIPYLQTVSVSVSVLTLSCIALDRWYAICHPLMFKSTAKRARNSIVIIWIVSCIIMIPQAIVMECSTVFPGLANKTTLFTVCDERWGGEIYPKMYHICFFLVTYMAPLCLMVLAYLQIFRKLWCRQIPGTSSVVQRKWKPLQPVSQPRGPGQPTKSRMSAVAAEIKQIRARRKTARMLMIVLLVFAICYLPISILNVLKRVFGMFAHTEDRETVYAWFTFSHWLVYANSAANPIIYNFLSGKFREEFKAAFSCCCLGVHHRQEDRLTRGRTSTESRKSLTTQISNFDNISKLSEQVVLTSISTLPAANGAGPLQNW
In words: Measurement of orexin receptor-binding ability ([125I]-OX-A, cell membranes, OX2). On the set-up: expressed in transfected cells; host or cells: CHO cells (membrane preparation). The conditions noted are these: membranes of recombinant CHO cells expressing OX2, 0.2 nM [125I]-OX-A; for pIC50: read-out: OX2 (IC50); for IC50: OX2 (IC50) nM.

The mark [1] stands for this setting: membranes of recombinant CHO cells expressing OX1, 0.2 nM [125I]-OX-A, read-out: OX1 (IC50).

pIC50: −log10 of the molar value. Like-named read-outs stand apart in the source and are kept apart here. Bounds are passed on as bounds.

Consider `Cc1ncc(OC[C@@]2(c3cccc(C#N)c3)C[C@H]2C(=O)Nc2cc(C)c(F)cn2)c(C)n1` [Example 117, (1R,2S)-2-(3-cyanophenyl)-2-{[(2,4-dimethylpyrimidin-5-yl)oxy]methyl}-N-(5-fluoro-4-methylpyridin-2-yl)cyclopropanecarboxamide], for which the figures for the pIC50 on OX1 (setting [1]) and at OX2 were 7.72 and 8.40, respectively.
On to `CCc1nc(C)ncc1OC[C@@]1(c2ccccc2)C[C@H]1C(=O)Nc1ccccn1` [Example 118, (1R,2S)-2-{[(4-ethyl-2-methylpyrimidin-5-yl)oxy]methyl}-2-phenyl-N-(pyridin-2-yl)cyclopropanecarboxamide], for which the pIC50 on OX1 (setting [1]) is 6.47; on OX2, 7.62.
For `CCc1nc(C)ncc1OC[C@@]1(c2ccccc2)C[C@H]1C(=O)Nc1cc(C)c(F)cn1` [Example 122], in that order: over 7.70 and 8.15.
Turning to `COc1ccccc1C1(COc2cnc(C)nc2C)CC1C(=O)Nc1ccc(F)cn1` (stereo not drawn) [Example 125], the pIC50 on OX1 is 5.98. Besides, the concentration for half-maximal inhibition (IC50) at OX2 turned out to be 84 nM.
Turning to `COc1ccccc1C1(COc2cnc(C)nc2C)CC1C(=O)Nc1cccnc1` (stereo not drawn) [Example 126], the pIC50 is 7.00 on OX1 (setting [1]) and 6.97 at OX2.
Consider `COc1ncc(OC[C@@]2(c3ccccc3)C[C@H]2C(=O)Nc2ccc(C#N)cn2)c(C)n1` [Example 127, (1R,2S)-N-(5-cyanopyridin-2-yl)-2-{[(2-methoxy-4-methylpyrimidin-5-yl)oxy]methyl}-2-phenylcyclopropanecarboxamide], for which the pIC50 on OX1 (setting [1]) is 5.96; at OX2, 7.10.
Consider `CCc1ncc(OC[C@@]2(c3ccccc3)C[C@H]2C(=O)Nc2ccc(Cl)cn2)c(C)n1` [Example 128, (1R,2S)-N-(5-chloropyridin-2-yl)-2-{[(2-ethyl-4-methylpyrimidin-5-yl)oxy]methyl}-2-phenylcyclopropanecarboxamide], for which the pIC50 was 6.64 at OX1 (setting [1]) and 7.12 on OX2.
On to `Cc1ncc(OC[C@@]2(c3cc(F)cc(F)c3)C[C@H]2C(=O)Nc2ccccn2)c(C)n1` [Example 131, (1R,2S)-2-(3,5-difluorophenyl)-2-{[(2,4-dimethylpyrimidin-5-yl)oxy]methyl}-N-(pyridin-2-yl)cyclopropanecarboxamide], for which the pIC50 on OX1 was 7.05. The IC50 on OX2 came to 5 nM.
Turning to `Cc1ncc(OC[C@@]2(c3cc(F)cc(F)c3)C[C@H]2C(=O)Nc2ccc(Cl)cn2)c(C)n1` [Example 132, (1R,2S)-N-(5-chloropyridin-2-yl)-2-(3,5-difluorophenyl)-2-{[(2,4-dimethylpyrimidin-5-yl)oxy]methyl}cyclopropanecarboxamide], the pIC50 on OX1 is 7.74. Also, the IC50 at OX2 stood at 4 nM.
In the same order, the values of `Cc1ncc(OC[C@@]2(c3cc(F)cc(F)c3)C[C@H]2C(=O)Nc2ccc(F)cn2)c(C)n1` [Example 133, (1R,2S)-2-(3,5-difluorophenyl)-2-{[(2,4-dimethylpyrimidin-5-yl)oxy]methyl}-N-(5-fluoropyridin-2-yl)cyclopropanecarboxamide] are 8.15 and 3 nM.
On to `Cc1ncc(OC[C@@]2(c3cc(F)cc(F)c3)C[C@H]2C(=O)Nc2ccc(F)c(F)c2)c(C)n1` [Example 134, (1R,2S)-N-(3,4-difluorophenyl)-2-(3,5-difluorophenyl)-2-{[(2,4-dimethylpyrimidin-5-yl)oxy]methyl}cyclopropanecarboxamide], for which the pIC50 at OX1 (setting [1]) was over 8.70; on OX2, 8.40.
For `Cc1ncc(OC[C@@]2(c3cc(F)cc(F)c3)C[C@H]2C(=O)Nc2ccc(F)cc2F)c(C)n1` [Example 135, (1R,2S)-N-(2,4-difluorophenyl)-2-(3,5-difluorophenyl)-2-{[(2,4-dimethylpyrimidin-5-yl)oxy]methyl}cyclopropanecarboxamide], the pIC50 was 7.85 at OX1 (setting [1]) and 8.10 on OX2.
For `Cc1ncc(OC[C@@]2(c3cc(F)cc(F)c3)C[C@H]2C(=O)Nc2ccc(C#N)cn2)c(C)n1` [Example 137, (1R,2S)-N-(5-cyanopyridin-2-yl)-2-(3,5-difluorophenyl)-2-{[(2,4-dimethylpyrimidin-5-yl)oxy]methyl}cyclopropanecarboxamide], the pIC50 at OX1 is 7.01. Moreover, the IC50 at OX2 turned out to be 4 nM.
With `COc1cc(NC(=O)[C@@H]2C[C@@]2(COc2cnc(C)nc2C)c2cc(F)cc(F)c2)ncc1F` [Example 138, (1R,2S)-2-(3,5-difluorophenyl)-2-{[(2,4-dimethylpyrimidin-5-yl)oxy]methyl}-N-(5-fluoro-4-methoxypyridin-2-yl)cyclopropanecarboxamide], the figures for the pIC50 on OX1 (setting [1]) and on OX2 were 8.59 and 8.62, respectively.
For `COCc1nc(C)ncc1OC[C@@]1(c2ccccc2)C[C@H]1C(=O)Nc1ccc(C#N)cn1` [Example 140, (1R,2S)-N-(5-cyanopyridin-2-yl)-2-{[(4-(methoxymethyl)-2-methylpyrimidin-5-yl)oxy]methyl}-2-phenylcyclopropanecarboxamide], the negative logarithm of the IC50 (pIC50) on OX1 (setting [1]) was 7.36; at OX2, 8.05.
For the compound `COCc1nc(C)ncc1OC[C@@]1(c2ccccc2)C[C@H]1C(=O)Nc1nc(C)cs1` [Example 142], the pIC50 is 6.48 on OX1 (setting [1]) and 7.44 at OX2.
As for `Cc1ncc(OCC2(c3ccccc3Cl)CC2C(=O)Nc2ccc(F)cn2)c(C)n1` (stereo not drawn) [Example 151], the pIC50 on OX1 was 6.99. The IC50 at OX2 is 25 nM.
For `Cc1ncc(OCC2(c3ccccc3Cl)CC2C(=O)Nc2ccc(Cl)cn2)c(C)n1` (stereo not drawn) [Example 152], the pIC50 on OX1 was 7.24. Further, the IC50 on OX2 came to 36 nM.
At OX1, `Cc1ncc(OCC2(c3ccccc3Cl)CC2C(=O)Nc2ccc(C#N)cn2)c(C)n1` (stereo not drawn) [Example 153] gave a pIC50 of 6.35. For the same compound, the IC50 on OX2 was 32 nM.
In the same order, the values of `Cc1ncc(OCC2(c3cccc(Cl)c3)CC2C(=O)Nc2ccc(F)cn2)c(C)n1` (stereo not drawn) [Example 154] are 8.22 and 7 nM.
For `Cc1ncc(OCC2(c3cccc(Cl)c3)CC2C(=O)Nc2ccc(Cl)cn2)c(C)n1` (stereo not drawn) [Example 155], the pIC50 at OX1 was 8.00. For the same compound, the IC50 on OX2 came out at 6 nM.
`Cc1ncc(OCC2(c3cccc(Cl)c3)CC2C(=O)Nc2ccc(C#N)cn2)c(C)n1` (stereo not drawn) [Example 156] showed a pIC50 on OX1 of 7.38. In addition, the IC50 at OX2 is 13 nM.
For `Cc1ncc(OCC2(c3cccc(Cl)c3)CC2C(=O)Nc2cccnc2)c(C)n1` (stereo not drawn) [Example 157], at OX1, the pIC50 was 6.40. Besides, the half-inhibitory concentration (IC50) at OX2 amounted to 69 nM.
Turning to `Cc1ncc(OCC2(c3ccc(Cl)cc3)CC2C(=O)Nc2ccc(Cl)cn2)c(C)n1` (stereo not drawn) [Example 158], the pIC50 was 6.74 at OX1 (setting [1]) and 7.57 on OX2.
As to `Cc1ncc(OCC2(c3ccc(Cl)cc3)CC2C(=O)Nc2ccc(C#N)cn2)c(C)n1` (stereo not drawn) [Example 159], the pIC50 at OX1 (setting [1]) is 6.20; on OX2, 7.21.
In the same order, the values of `Cc1ncc(OCC2(c3ccc(Cl)cc3)CC2C(=O)Nc2cccnc2)c(C)n1` (stereo not drawn) [Example 160] are 6.41 and 7.55.
`Cc1ncc(OCC2(c3cccc(F)c3F)CC2C(=O)Nc2ccc(F)cn2)c(C)n1` (stereo not drawn) [Example 162, 2-(2,3-difluorophenyl)-2-{[(2,4-dimethylpyrimidin-5-yl)oxy]methyl}-N-(5-fluoropyridin-2-yl)cyclopropanecarboxamide] had a negative logarithm of the IC50 (pIC50) on OX1 of 7.19. Besides, the IC50 on OX2 was determined as 13 nM.
Take `Cc1ncc(OCC2(c3cc(F)ccc3F)CC2C(=O)Nc2ccc(F)cn2)c(C)n1` (stereo not drawn) [Example 163, 2-(2,5-difluorophenyl)-2-{[(2,4-dimethylpyrimidin-5-yl)oxy]methyl}-N-(5-fluoropyridin-2-yl)cyclopropanecarboxamide]: the pIC50 on OX1 is over 7.70. Besides, the IC50 at OX2 came to 10 nM.
Take `Cc1ncc(OC[C@@]2(c3ccc(F)c(F)c3)C[C@H]2C(=O)Nc2ccc(F)cc2)c(C)n1` [Example 165, (1R,2S)-2-(3,4-difluorophenyl)-2-{[(2,4-dimethylpyrimidin-5-yl)oxy]methyl}-N-(4-fluorophenyl)cyclopropanecarboxamide]: the figures for the pIC50 at OX1 (setting [1]) and on OX2 were 7.54 and 8.15, respectively.
Turning to `Cc1ncc(OC[C@@]2(c3ccc(F)c(F)c3)C[C@H]2C(=O)Nc2ccccn2)c(C)n1` [Example 166, (1R,2S)-2-(3,4-difluorophenyl)-2-{[(2,4-dimethylpyrimidin-5-yl)oxy]methyl}-N-(pyridin-2-yl)cyclopropanecarboxamide], the pIC50 on OX1 is 7.30. For the same compound, the IC50 on OX2 came to 7 nM.
